Data taken from patent US20140235630A1, “COMPOSITIONS AND METHODS FOR THE TREATMENT OF PROLIFERATIVE DISEASES” (Beth Israel Deaconess Medical Center, Inc., priority 2011, published 2014).

Legend:
[1] = system: phospho-AKT (S473); experiment: AKT phosphorylation in tumor tissue (immunohistochemistry / immunoblot); type: in vivo, mouse; details: for AKT phosphorylation in tumor tissue lysates: immunoblot, tumor taken 2-3 hours after last dose, Compound A 30 mg/kg/day, Compound B 50 mg/kg/day
Method: All animal experiments were conducted in accordance with IACUC-approved protocols at Beth Israel Deaconess Medical Center, Boston, and at the University of Vall d'Hebron, Barcelona, Spain. Female MMTV-CreBRCA1^f/fp53+/− mice were obtained by breeding BRCA1 conditional knockout mice from the NIH repository (01XC8, strain C57BL/6) (Xu et al. Nat. Genet., 22: 37-43, 1999); with MMTV-Cre (Jackson Laboratory B6129-TgN(MMTV-Cre)4Mam) (Wagner et al. Nucleic Acids Res., 25: 4323-4330, 1997) and p53 knockout (Taconic Farms, P53N12-M, C57BL/6) (Donehower et al. Nature, 356: 215-221, 1992). At the time of the study, mice had been inbred for 4 years (>7 generations). The floxed or wild type status of Brca1, the presence of the MMTV-Cre transgene and the p53 heterozygosity were determined by PCR. Mice were examined for the occurrence of tumors twice weekly. When tumormetrics were performed, the length and width of the tumor was determined using calipers, and the tumor volume was determined (width^2×length/2). Tumor volume was used as a measure of growth and was recorded as ratio to tumor volume at diagnosis. Tumor doubling times were calculated using the functions of the best fit curves for all data points in each treatment modality. 5-(2,6-dimorpholinopyrimidin-4-yl)-4-(trifluoromethyl)pyridin-2-amine (Compound A) was resuspended in 5% Methylcellulose solution (Fluka) and administered via oral gavage at 50 mg/kg/day or 30 mg/kg/day. […]
Cells were treated with mock, 5-(2,6-dimorpholinopyrimidin-4-yl)-4-(trifluoromethyl)pyridin-2-amine (Compound A), 4-[[3-[4-(cyclopropanecarbonyl)piperazine-1-carbonyl]-4-fluorophenyl]methyl]-2H-phthalazin-1-one (Compound B), KU-55933, or the combination and lysed in cell lysis buffer (9803, Cell Signaling) as per the manufacturer's instructions. […] The protein concentration was determined using Bradford reagent (Biorad). […]

[2] = Intratumoral Compound A concentration by LC/MS/MS; type: in vivo, mouse; details: 3 hours after last dose; Compound A 30 mg/kg/day, alone or with Compound B 50 mg/kg/day
Method: FIG. 6F is a graph showing the intratumoral Compound A concentrations as assessed by mass spectrometry of tumor tissues harvested from animals 3 hours after last treatment with Compound A (30 mg/kg/day), Compound B (50 mg/kg/day), or their combination.
Metabolites from 100 mg of mouse tumor samples were extracted using 80% methanol according to Yuan et al. (Nat. Protoc., 7: 872-881, 2012) 10 μL were injected and analyzed using a 5500 QTRAP hybrid triple quadrupole mass spectrometer (AB/SCIEX) coupled to a Prominence UFLC HPLC system (Shimadzu) via selected reaction monitoring (SRM) for the Q1/Q3 transition of 410.8/367.0 for 5-(2,6-dimorpholinopyrimidin-4-yl)-4-(trifluoromethyl)pyridin-2-amine (Compound A). ESI voltage was +4900V in positive ion mode using a dwell time of 4 msec and collision energy of 45. Approximately 15 data points were obtained for Compound A per LC/MS/MS experiment. Samples were delivered to the MS via hydrophilic interaction chromatography (HILIC) using a 4.6 mm i.d×10 cm Amide Xbridge column (Waters) at 350 μL/min. Gradients were run starting from 85% buffer B (HPLC grade acetonitrile) to 42% B from 0-5 minutes; 42% B to 0% B from 5-16 minutes; 0% B was held from 16-24 minutes; 0% B to 85% B from 24-25 minutes; 85% B was held for 7 minutes to re-equilibrate the column. Compound A eluted at approximately 3.50 min. […]

[3] = system: HCC1937 cells; experiment: DNA damage response immunoblots with or without ionizing radiation (10 Gy); type: cell-based, human
Method: FIG. 5A are immunoblots showing the effects of Compound A, ATM inhibitor KU-55933, and their combination on the DNA damage response. HCC1937 were treated for 18 hours with Compound A at 2.5 μM, KU55933 at 10 μM, or their combination, subjected to ionizing irradiation with 10 Gy or mock, lysed 6 hours later, and subjected to immunoblotting. […] Immunoblots were performed using the Nupage System (Invitrogen). The protein concentration was determined using Bradford reagent (Biorad). A total of 20 μg of protein were loaded, except for PAR, Phospho ATM and Phospho DNA-PK/PRKDC western blots, where 40 μg were loaded. Tumor tissue lysates were prepared similarly with the exception of tissue homogenization by using an electric homogenizer for 30 secs after addition of the lysis buffer. Primary antibodies used for western blotting were total AKT (9272), Cleaved […] 3 (9661), total ERK (4695), Phospho AKT Ser473 (4058), Phospho ERK Thr202/Tyr204 (9106), Phospho-Histone H2AX Ser139 (2577), PTEN (9559) from Cell Signaling. Phospho ATM […] (2152-1), Phospho DNA-PK/PRKDC […] (3892-1) from Epitomics, Inc. CD31 (ab28364), Actin (ab6276), INPP4B (ab81269) from Abcam; pADPr (sc56198) from Santacruz Biotechnology; and Ki-67 (RM-9106) was purchased from Thermo Scientific.

SMILES | AKT phosphorylation in tumor tissue lysates [1] | Compound A levels in tumor tissues [2] | H2AX phosphorylation in response to ionizing radiation ([3]; 18 hours pre-treatment, 10 Gy, lysed 6 hours later) | auto-phosphorylation of DNA-PK ([3]; Compound A 2.5 μM, 18 hours) | PAR accumulation ([3]; Compound A 2.5 μM, KU55933 10 μM) | Rad51 accumulation in response to ionizing radiation ([3]; pre-treatment, 10 Gy) | phosphorylation of AKT at Ser-473 in tumors ([1]; IHC of biopsies before and after two weeks of treatment)
O=C(c1cc(Cc2n[nH]c(=O)c3ccccc23)ccc1F)N1CCN(C(=O)C2CC2)CC1 [Compound B, 4-[[3-[4-(cyclopropanecarbonyl)piperazine-1-carbonyl]-4-fluorophenyl]methyl]-2H-phthalazin-1-one, reference compound] | induction of AKT phosphorylation | – | – | – | – | – | –
Nc1cc(C(F)(F)F)c(-c2cc(N3CCOCC3)nc(N3CCOCC3)n2)cn1 [Compound A, 5-(2,6-dimorpholinopyrimidin-4-yl)-4-(trifluoromethyl)pyridin-2-amine] | potently reduced | consistently in the micro-molar range | prominent augmentation | strong increase | increased | failure to increase Rad51 | strongly decreased
